Molecules are shown by their SMILES.

In the assay the target is T1, recombinant human baculovirus-expressed GST-tagged FASN (Homo sapiens, UniProt P49327).
T1 construct: GST; host or cells: baculovirus expression system (insect cells implied)
T1 sequence (P49327 whole entry): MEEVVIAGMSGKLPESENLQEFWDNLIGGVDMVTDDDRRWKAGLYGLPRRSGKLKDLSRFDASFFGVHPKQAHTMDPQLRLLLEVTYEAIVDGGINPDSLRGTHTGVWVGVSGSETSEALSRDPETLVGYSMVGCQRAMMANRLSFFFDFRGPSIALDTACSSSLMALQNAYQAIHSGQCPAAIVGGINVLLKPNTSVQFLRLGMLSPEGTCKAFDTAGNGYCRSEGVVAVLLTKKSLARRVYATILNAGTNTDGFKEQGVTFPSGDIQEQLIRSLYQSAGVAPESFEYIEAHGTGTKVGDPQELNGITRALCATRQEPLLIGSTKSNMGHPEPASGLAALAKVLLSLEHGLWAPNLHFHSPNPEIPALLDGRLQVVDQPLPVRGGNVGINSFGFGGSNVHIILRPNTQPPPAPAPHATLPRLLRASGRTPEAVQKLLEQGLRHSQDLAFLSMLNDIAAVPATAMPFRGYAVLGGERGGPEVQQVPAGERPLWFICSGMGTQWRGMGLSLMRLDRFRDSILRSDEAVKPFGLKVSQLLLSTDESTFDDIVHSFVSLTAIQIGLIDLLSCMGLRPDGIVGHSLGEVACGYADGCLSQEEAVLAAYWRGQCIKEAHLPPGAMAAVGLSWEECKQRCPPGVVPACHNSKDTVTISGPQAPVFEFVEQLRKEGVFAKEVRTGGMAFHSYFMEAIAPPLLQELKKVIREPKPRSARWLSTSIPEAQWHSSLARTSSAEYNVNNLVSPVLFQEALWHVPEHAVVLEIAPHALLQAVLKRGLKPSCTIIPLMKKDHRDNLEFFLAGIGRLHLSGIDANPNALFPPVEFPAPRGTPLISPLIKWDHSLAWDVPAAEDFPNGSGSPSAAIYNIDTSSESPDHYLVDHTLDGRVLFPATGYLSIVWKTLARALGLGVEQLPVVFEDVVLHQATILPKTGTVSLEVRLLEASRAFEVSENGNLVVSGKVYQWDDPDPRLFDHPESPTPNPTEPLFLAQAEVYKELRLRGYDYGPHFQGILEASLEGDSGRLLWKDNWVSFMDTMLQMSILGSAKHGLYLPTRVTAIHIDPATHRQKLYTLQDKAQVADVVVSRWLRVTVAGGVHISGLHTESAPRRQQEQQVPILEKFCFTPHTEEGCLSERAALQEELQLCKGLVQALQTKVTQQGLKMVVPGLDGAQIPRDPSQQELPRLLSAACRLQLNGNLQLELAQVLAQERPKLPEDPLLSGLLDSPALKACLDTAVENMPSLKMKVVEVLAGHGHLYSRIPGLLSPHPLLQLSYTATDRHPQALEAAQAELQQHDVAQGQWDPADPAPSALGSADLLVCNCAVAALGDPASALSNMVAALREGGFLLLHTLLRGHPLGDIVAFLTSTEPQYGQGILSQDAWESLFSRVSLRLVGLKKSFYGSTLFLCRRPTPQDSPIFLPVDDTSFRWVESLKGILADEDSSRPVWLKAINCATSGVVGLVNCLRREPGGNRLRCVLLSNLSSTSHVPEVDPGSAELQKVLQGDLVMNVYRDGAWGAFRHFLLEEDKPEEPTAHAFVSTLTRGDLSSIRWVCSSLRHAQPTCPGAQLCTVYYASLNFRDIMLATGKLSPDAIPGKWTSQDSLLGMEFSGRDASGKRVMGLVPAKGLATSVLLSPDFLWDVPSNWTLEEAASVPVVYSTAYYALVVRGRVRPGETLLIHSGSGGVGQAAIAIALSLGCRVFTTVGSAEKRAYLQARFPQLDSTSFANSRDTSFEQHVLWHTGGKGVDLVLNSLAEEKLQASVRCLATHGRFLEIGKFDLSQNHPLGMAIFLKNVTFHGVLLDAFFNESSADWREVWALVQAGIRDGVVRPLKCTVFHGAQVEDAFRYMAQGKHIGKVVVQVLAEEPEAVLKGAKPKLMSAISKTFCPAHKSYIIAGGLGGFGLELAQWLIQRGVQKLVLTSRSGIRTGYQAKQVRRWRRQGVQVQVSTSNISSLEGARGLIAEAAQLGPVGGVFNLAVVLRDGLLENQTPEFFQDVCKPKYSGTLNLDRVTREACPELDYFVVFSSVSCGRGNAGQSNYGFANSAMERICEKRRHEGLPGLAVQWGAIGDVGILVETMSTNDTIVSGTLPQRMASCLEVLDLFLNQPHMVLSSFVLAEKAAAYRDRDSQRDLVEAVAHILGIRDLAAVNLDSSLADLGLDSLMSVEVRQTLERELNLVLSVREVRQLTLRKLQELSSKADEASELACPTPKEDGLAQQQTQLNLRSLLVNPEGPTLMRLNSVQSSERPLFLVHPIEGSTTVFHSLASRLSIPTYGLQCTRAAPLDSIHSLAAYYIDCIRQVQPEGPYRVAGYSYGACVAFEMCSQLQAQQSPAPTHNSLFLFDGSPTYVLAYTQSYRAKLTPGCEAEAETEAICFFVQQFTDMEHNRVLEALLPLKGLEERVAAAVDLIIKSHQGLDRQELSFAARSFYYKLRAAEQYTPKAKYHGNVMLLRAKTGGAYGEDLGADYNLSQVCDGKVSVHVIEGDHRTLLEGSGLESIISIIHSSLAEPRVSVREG
Put plainly: FASN enzyme activity assay: fluorescence-based detection of CoA with CPM. The format is biochemical. To be noted: 5 nM FASN, 150 μM NADPH, 10 μM acetyl-CoA, 25 μM malonyl-CoA, 90 minutes incubation. From the text: FASN Enzyme activity may be determined by detecting coenzyme A (CoA), a product of FASN-catalyzed synthesis of palmitate from acetyl-CoA and malonyl-CoA with NADPH as a cofactor. The assay is fluorescence-based and measures the interaction of free CoA with 7-diethylamino-3-(4′-malemimidylphenyl)-4-methylcoumarin (CPM; Life Technologies, CA) as described in Chung et al (2008). The coumarin derivative CPM contains a thiol-reactive maleimide that becomes fluorescent upon interaction with the sulfhydryl group of CoA.
For the example compounds described herein, the reaction was performed in 384-well low volume non-binding platews (Corning, NY) using recombinant human baculovirus-expressed GST-tagged FASN. The 20-μL assay mixture contained 50 mM HEPES (pH 7.5), 5 nM FASN, 150 μM NADPH (Sigma, St. Louis, MO), 10 μM acetyl-CoA (Sigma), 25 μM malonyl-CoA (Sigma) and test compound [diluted in dimethyl sulfoxide (DMSO); 0.5% DMSO final in assay after 100 nL addition]. See, Chung et al.; “A fluorescence-based thiol quantification assay for ultra-high-throughput screening for inhibitors of coenzyme A production,” Assay Drug Dev Tech 2008; 6:361-374.
The reaction was initiated by adding malonyl-CoA, followed by incubation for 90 minutes at […]. A stock solution of the CPM reagent was prepared in DMSO al 66 μM and stored at […]. To detect CoA produced in the FASN reaction, the CPM stock was diluted to 50 μM in 70% ethanol and added at 4 μL/well to the assay place. The reaction mixture was then incubated for 30 minutes. Fluorescence was measured using the EnVision™ 2102 multi-label plate reader (PerkinElmer, Waltham, MA) utilizing a general dual mirror, a 390 nm excitation filter and a 530 nm emission filter. Data analysis was performed using ActivityBase (IDBS, Guilford, UK). IC50 values were calculated by plotting the percent inhibition versus log 10 of the concentration of the compound, and fitting to the nonlinear regression sigmoidal dose-response (variable slope) equation in XLFit (IDBS).
On to `COCCOC(c1ccc(-c2ccc3cccnc3c2C)cc1)C1CCN(C(=O)[C@H]2CCCO2)CC1` (stereo partly drawn) [Example 80, (4-{(2-Methoxyethoxy)-[4-(8-methyl-quinolin-7-yl)-phenyl]-methyl}-piperidin-1-yl)-(R)-tetrahydrofuran-2-yl-methanone], for which the IC50 was 1 to 99 nM.

For the molecule `CCC(=O)N1CCC(F)(Cc2ccc(-c3ccc4cnccc4c3)cc2)CC1` [Example 165, 1-(4-fluoro-4-(4-(isoquinolin-6-yl)benzyl)piperidin-1-yl)propan-1-one], the concentration for half-maximal inhibition (IC50) was in the range of 1 to 99 nM.

Take `CCC(=O)N1CCC(C(C)c2ccc(-c3cnc4ccccc4c3C)cc2)CC1` (stereo not drawn) [Example 65, 1-(4-{1-[4-(4-Methylquinolin-3-yl)-phenyl]-ethyl}-piperidin-1-yl)-propan-1-one]: the IC50 lay within 1 to 99 nM. For `CCC(=O)N1CCC(F)(Cc2ccc(-c3cnc4ccccc4c3Cl)cc2)CC1` [Example 193, 1-(4-(4-(4-chloroquinolin-3-yl)benzyl)-4-fluoropiperidin-1-yl)propan-1-one] the value was 1 to 99 nM. The same measure for `CCC(OC)(c1ccc(-c2cnc3ccccc3c2)cc1)C1CCN(C(=O)C2CC2)CC1` (stereo not drawn) [Example 211, Cyclopropyl-{4-[1-methoxy-1-(4-quinolin-3-yl-phenyl)-propyl]-piperidin-1-yl}-methanone]: 1000 to 10000 nM; for `CCNC(=O)N1CCC(F)(Cc2ccc(-c3ccc4cccnc4c3C)cc2)CC1` [Example 228, N-ethyl-4-fluoro-4-[[4-(8-methyl-7-quinolyl)phenyl]methyl]piperidine-1-carboxamide]: 1 to 99 nM; for `O=C([C@H]1CCCO1)N1CCC(Cc2ccc(-c3ccc4cccnc4c3Cl)cc2)CC1` [Example 31, {4-[4-(8-Chloroquinolin-7-yl)-benzyl]-piperidin-1-yl}-(R)-tetrahydrofuran-2-yl-methanone]: 1 to 99 nM. In the case of `CCC(=O)N1CCC(C2(c3ccc(-c4ccc5ncccc5c4)cc3)OCCO2)CC1` [Example 104, 1-{4-[2-(4-Quinolin-6-yl-phenyl)-1,3-dioxolan-2-yl]-piperidin-1-yl}-propan-1-one], the IC50 is 1000 to 10000 nM. As for `O=C([C@H]1CCCO1)N1CCC(O)(Cc2ccc(-c3cc4ccccc4cn3)cc2)CC1` [Example 146, [4-Hydroxy-4-(4-isoquinolin-3-yl-benzyl)-piperidin-1-yl]-(R)-tetrahydro-furan-2-yl-methanone], the 50% inhibitory concentration (IC50) lay in the range of 100 to 999 nM. The same measure for `CC(c1ccc(-c2ccc3cccnc3c2)cc1)C1CCN(C(=O)[C@H]2CCCO2)CC1` (stereo partly drawn) [Example 51, {4-[1-(4-Quinolin-7-yl-phenyl)-ethyl]-piperidin-1-yl}-(R)-tetrahydrofuran-2-yl-methanone]: 1 to 99 nM.

Take `CC(c1ccc(-c2ccc3cccnc3c2Cl)cc1)C1CCN(C(=O)[C@H]2CCCO2)CC1` (mixture of isomers) [Example 74, (4-{1-[4-(8-Chloroquinolin-7-yl)-phenyl]-ethyl}-piperidin-1-yl)-(R)-tetrahydrofuran-2-yl-methanone]: the 50% inhibitory concentration (IC50) lay within 1 to 99 nM. For `O=C([C@H]1CCCO1)N1CCC(C(F)(F)c2ccc(-c3cnc4ccccc4c3)cc2)CC1` [Example 18, {4-[Difluoro-(4-quinolin-3-yl-phenyl)-methyl]-piperidin-1-yl}-(R)-tetrahydrofuran-2-yl-methanone] the value was 1 to 99 nM. Take `O=C(C1CC1)N1CCC(C2(c3ccc(-c4cnc5ccccc5c4)cc3)OCCO2)CC1` [Example 141, Cyclopropyl-(4-[2-(4-quinolin-3-yl-phenyl)-1,3-dioxolan-2-yl]-piperidin-1-yl)-methanone]: the concentration for half-maximal inhibition (IC50) fell in the range of 100 to 999 nM. The same measure for `CCC(=O)N1CC=C(Cc2ccc(-c3cnc4ccccc4c3C)cc2)CC1` [Example 196, 1-(4-(4-(4-Methylquinolin-3-yl)benzyl)-5,6-dihydropyridin-1(2H)-yl)propan-1-one]: 1 to 99 nM. For `CCC(=O)N1CCC(C(C)(O)c2ccc(-c3ccc4cnccc4c3)cc2)CC1` (stereo not drawn) [Example 131, 1-{4-[1-Hydroxy-1-(4-isoquinolin-6-yl-phenyl)-ethyl]-piperidin-1-yl}-propan-1-one] the value was 100 to 999 nM; for `Cc1c(-c2ccc(CC3CCN(C(=O)[C@H]4CCCO4)CC3)cc2)ccc2nccn12` [Example 93, {4-[4-(5-Methyl-imidazo[1,2-a]pyridin-6-yl)-benzyl]-piperidin-1-yl}-(R)-tetrahydrofuran-2-yl-methanone], 1 to 99 nM; for `CC(C)C(=O)N1CCC(C2(c3ccc(-c4ccc(CN(C)C)cc4)cc3)OCCO2)CC1` [Example 135, 1-{4-[2-(4′-Dimethylaminomethyl-biphenyl-4-yl)-1,3-dioxolan-2-yl]piperidin-1-yl}-2-methyl-propan-1-one], 1000 to 10000 nM.

With `CCC(=O)N1CCC(C2(c3ccc(-c4cnc5ccccc5c4)cc3)OCCO2)CC1` [Example 139, 1-{4-[2-(4-Quinolin-3-yl-phenyl)-1,3-dioxolan-2-yl]-piperidin-1-yl}-propan-1-one], the half-inhibitory concentration (IC50) is 1 to 99 nM. The same measure for `CCC(=O)N1CCC(C2(c3ccc(-c4ccc(CN(C)C)cc4)cc3)OCCO2)CC1` [Example 136, 1-{4-[2-(4′-Dimethylaminomethyl-biphenyl-4-yl)-1,3-dioxolan-2-yl]-piperidin-1-yl}-propan-1-one]: 1000 to 10000 nM. For `CCC(=O)N1CCC(C2(c3ccc(-c4ccc5cccnc5c4)cc3)OCCCO2)CC1` [Example 123, 1-{4-[2-(4-Quinolin-7-yl-phenyl)-1,3-dioxinan-2-yl]-piperidin-1-yl}-propan-1-one] the value was 1000 to 10000 nM; for `Cc1nccc2cc(-c3ccc(C(OCCCN4CCOCC4)C4CCN(C(=O)[C@H]5CCCO5)CC4)cc3)ccc12` (stereo partly drawn) [Example 86, {4-[[4-(1-Methylisoquinolin-6-yl)-phenyl]-(3-morpholin-4-yl-propoxy)-methyl]-piperidin-1-yl}-(R)-tetrahydrofuran-2-yl-methanone], 100 to 999 nM. The same measure for `O=C(C1CCCO1)N1CC=C(Cc2ccc(-c3ccc4cccnc4c3)cc2)CC1` (stereo in doubt) [Example 188, (R)-(4-(4-(quinolin-7-yl)benzyl)-5,6-dihydropyridin-1(2H)-yl)(tetrahydrofuran-2-yl)methanone]: 1 to 99 nM; for `Cc1c(-c2ccc(CC3(F)CCN(C(=O)C4CC4)CC3)cc2)ccc2cccnc12` [Example 183, Cyclopropyl(4-fluoro-4-(4-(8-methylquinolin-7-yl)benzyl)piperidin-1-yl)methanone]: 1 to 99 nM.

Regarding `CCC(=O)N1CCC(Cc2ccc(-c3cc4ccccc4cn3)cc2)CC1` [Example 26, 1-[4-(4-Isoquinolin-3-yl-benzyl)-piperidin-1-yl]-propan-1-one], the IC50 lay in the range of 1000 to 10000 nM. Consider `CCC(=O)N1CCC(C(c2ccc(-c3cnc4ccccc4c3)cc2)C(C)C)CC1` (stereo not drawn) [Example 61, 1-{4-[2-Methyl-1-(4-quinolin-3-yl-phenyl)-propyl]-piperidin-1-yl}-propan-1-one], for which the IC50 lay within 100 to 999 nM. For the molecule `CCC(=O)N1CCC(C(=O)c2ccc(-c3cnc4ccccc4c3)cc2F)CC1` [Example 143, 1-[4-(2-Fluoro-4-quinolin-3-yl-benzoyl)piperidin-1-yl]propan-1-one], the half-maximal inhibitory concentration (IC50) lay in the range of 1 to 99 nM. For `CCC(=O)N1CCC(C#N)(Cc2ccc(-c3ccc4cccnc4c3OC)cc2)CC1` [Example 92, 4-[4-(8-methoxyquinolin-7-yl)-benzyl]-1-propionylpiperidine-4-carbonitrile] the value was 1 to 99 nM.

The IC50 is the concentration that inhibits the measured activity by half.

Values taken from US11878966B2, “Substituted 4-benzyl and 4-benzoyl piperidine derivates” (89BIO LTD, priority 2015, dated 2024).
